Laboratory results: patent US4107299A, “Cardioactive 12-epi-digoxin and derivatives thereof” (Boehringer Mannheim GmbH, priority 1975, dated 1978)
Where two headings read alike, the source gives them in different places.

Tested on: insulated, electrically stimulated left atrium of the guinea pig
Test: Therapeutic effect and therapeutic spectrum at the insulated, electrically stimulated left atrium of the guinea pig
Assay type: cell-based
Details: mean and average deviation; for EC50 / Emax: Cavia porcellus; for therapeutic spectrum: quotient EC50 decrease/EC50 increase; for Emax: in percentage of the decrease of the amplitude by reduction of the calcium content (1.8 to 0.45 mVal), read-out: Contraction Amplitude maximum increase (%); for Contraction Amplitude maximum increase: maximum contraction amplitude with increasing glycoside concentrations, calcium reduced from 1.8 to 0.45 mVal, 31° C, 3 Hz
Procedure: Comparison of the therapeutic spectrum of various cardioactive glycosides was undertaken, employing electrical stimulation of the insulated left atrium of guinea pigs. Specifically, the left atrium was suspended in Tyrode solution at 31° C and electrically stimulated by a frequency of 3 Hz with rectangular impulses of 2 m sec. duration and optimum tension. The maximum contraction strength was registered semi-isometrically.
When a constant contraction amplitude has set in, the calcium concentration was reduced from 1.8 to 0.45 mVal. The initial tension was adjusted to 1 g at the start of the test; if necessary, it was adjusted after the readjustment to a solution poor in calcium, however, no longer changed during the further course of the experiment.
Of the glycosides to be tested, stock solutions were prepared in dimethyl acetamide and, for the test with NaCl-solution so diluted that the stated end concentrations were obtained with the addition of 0.1 ml to a bath volume of 80 ml. It was determined in preliminary tests that up to 0.4 ml undiluted dimethyl acetamide were tolerated without influencing the contractility.
If, after reduction of the calcium concnetration, a constant degree of contraction was again obtained after approximately 10 minutes, concentrations of the glycoside to be tested were added in the ratio 1 + 1 + 2 + 4, etc. The period between the individual additions was 15 minutes.
Prior to the change-over to a calcium-poor Tyrode solution and prior to each addition of glycoside, as well as 15 minutes after the last dose, the prestress was measured in grams and the contraction amplitude in mg. The difference of the amplitude was calculated from the test values for the contraction amplitude after reduction of the calcium content. The difference between the contraction amplitude before and after the change-over to a calcium-poor solution was put as equal to 100% amplitude reduction.
It was determined for each individual atrium when, with administration of increasing concentrations of the glycosides, there was obtained
the maximum contraction amplitude ("maximum increase");
increase of the amplitude to 50% of the difference between normal and reduced calcium content ("EC50 increase");
decrease of the contraction amplitude to the same height ("EC50 decrease");
the therapeutic spectrum quotient of the two EC50, i.e. EC50 decrease/EC50 increase.
With these evaluation processes, there are obtained numerical data for the concentration and the period during which the corresponding effect was observed. In order to obtain a uniform basis for the evaluation, differences in the time of the appearance were converted into concentrations according to the following method:
The logarithm of the concentration was graphically plotted against the time in such manner that the lowest concentration was put at 15 minutes, the next higher one at 30 minutes, etc. The evaluation of the tests yielded the time after the start of the test at which the respective effect had appeared. The concentration pertaining to it was read from the diagram.
This procedure is based on the assumption that the concentration increases exponentially at the place of the effect. De facto this assumption is more correct than a regular increase in concentration in stages in the bath liquid since there is a substantial time lapse between the increase of the concentration in the bath and in the tissue.
In addition, the maximum degree of […] was measured in all tests under the influence of the glycosides and in percentage of the decrease of the amplitude by reduction of the calcium content.

[1] = decrease of the contraction amplitude to the same height (50%) at higher concentrations, read-out: EC50 decrease
[2] = increase of the amplitude to 50% of the difference between normal and reduced calcium content, read-out: EC50 increase

Row | Structure (SMILES) | EC50 [1] [µM] | EC50 [2] [µM] | therapeutic spectrum | Emax [%] | Contraction Amplitude maximum increase [mg]
1 | CO[C@H]1[C@@H](O)C[C@H](O[C@H]2[C@@H](O)C[C@H](O[C@H]3[C@@H](O)C[C@H](O[C@H]4CC[C@@]5(C)[C@H](CC[C@@H]6[C@@H]5C[C@H](OC(C)=O)[C@]5(C)[C@@H](C7=CC(=O)OC7)CC[C@]65O)C4)O[C@@H]3C)O[C@@H]2C)O[C@@H]1C [Example 18, 12-Acetyl-12-epi-β-methyldigoxin] | 25.6 ± 2.9 | 4.71 ± 0.81 | 6.50±1.5 | – | –
2 | C#CCC1=C([C@H]2CC[C@]3(O)[C@@H]4CC[C@@H]5C[C@@H](O[C@H]6C[C@H](O)[C@H](O[C@H]7C[C@H](O)[C@H](O[C@H]8C[C@H](O)[C@H](OC)[C@@H](C)O8)[C@@H](C)O7)[C@@H](C)O6)CC[C@]5(C)[C@H]4C[C@H](O)[C@]23C)COC1=O [Example 26, 22-Propargyl-12-epi-β-methyldigoxin] | 14.6 ± 1.4 | 4.46 ± 0.75 | 3.94±1.0 | – | –
3 | CCC1=C([C@H]2CC[C@]3(O)[C@@H]4CC[C@@H]5C[C@@H](O[C@H]6C[C@H](O)[C@H](O[C@H]7C[C@H](O)[C@H](O[C@H]8C[C@H](O)[C@H](O)[C@@H](C)O8)[C@@H](C)O7)[C@@H](C)O6)CC[C@]5(C)[C@H]4C[C@H](O)[C@]23C)COC1=O [Example 9, 22-Ethyl-12-epi-digoxin] | 39.3 ± 3 | 6.63 ± 0.75 | 6.39±0.96 | – | –
4 | CO[C@H]1[C@@H](O)C[C@H](O[C@H]2[C@@H](O)C[C@H](O[C@H]3[C@@H](O)C[C@H](O[C@H]4CC[C@@]5(C)[C@H](CC[C@@H]6[C@@H]5C[C@H](O)[C@]5(C)[C@@H](C7=CC(=O)OC7)CC[C@]65O)C4)O[C@@H]3C)O[C@@H]2C)O[C@@H]1C [Example 2, 12-Epi-β-methyldigoxin] | 2.78 ± 0.4 | 0.315 ± 0.02 | 8.86±1.17 | 96 ± 6.3 | 666 ± 78
5 | CO[C@H]1[C@@H](O)C[C@H](O[C@H]2[C@@H](O)C[C@H](O[C@H]3[C@@H](O)C[C@H](O[C@H]4CC[C@@]5(C)[C@H](CC[C@@H]6[C@@H]5C[C@H](O)[C@]5(C)[C@@H](C7=C(C(C)C)C(=O)OC7)CC[C@]65O)C4)O[C@@H]3C)O[C@@H]2C)O[C@@H]1C [Example 14, 22-Isopropyl-12-epi-β-methyldigoxin] | 61.9 ± 5.2 | 21.6 ± 1.9 | 3.08±0.45 | – | –
6 | CO[C@H]1[C@@H](O)C[C@H](O[C@H]2[C@@H](O)C[C@H](O[C@H]3[C@@H](O)C[C@H](O[C@H]4CC[C@@]5(C)[C@H](CC[C@@H]6[C@@H]5C[C@H](O)[C@]5(C)[C@@H](C7=C(C)C(=O)OC7)CC[C@]65O)C4)O[C@@H]3C)O[C@@H]2C)O[C@@H]1C [Example 12, 22-Methyl-12-epi-β-methyldigoxin] | 17 ± 1.7 | 3.55 ± 0.41 | 5.15±0.59 | – | –
7 | CC(=O)O[C@H]1[C@@H](O)C[C@H](O[C@H]2[C@@H](O)C[C@H](O[C@H]3[C@@H](O)C[C@H](O[C@H]4CC[C@@]5(C)[C@H](CC[C@@H]6[C@@H]5C[C@H](O)[C@]5(C)[C@@H](C7=CC(=O)OC7)CC[C@]65O)C4)O[C@@H]3C)O[C@@H]2C)O[C@@H]1C [Example 6, β-Acetyl-12-epi-digoxin] | 3.76 ± 0.25 | 0.921 ± 0.07 | 4.25±0.51 | – | –
8 | C[C@H]1O[C@@H](O[C@H]2[C@@H](O)C[C@H](O[C@H]3[C@@H](O)C[C@H](O[C@H]4CC[C@@]5(C)[C@H](CC[C@@H]6[C@@H]5C[C@H](O)[C@]5(C)[C@@H](C7=CC(=O)OC7)CC[C@]65O)C4)O[C@@H]3C)O[C@@H]2C)C[C@H](O)[C@@H]1O [Example 1, 12-Epi-digoxin] | 2.48 ± 0.3 | 0.557 ± 0.07 | 4.49±0.35 | 92 ± 6.5 | 746 ± 56
9 | CC(=O)O[C@H]1C[C@H](O[C@H]2[C@@H](O)C[C@H](O[C@H]3[C@@H](O)C[C@H](O[C@H]4CC[C@@]5(C)[C@H](CC[C@@H]6[C@@H]5C[C@H](O)[C@]5(C)[C@@H](C7=CC(=O)OC7)CC[C@]65O)C4)O[C@@H]3C)O[C@@H]2C)O[C@H](C)[C@H]1O [Example 5, α-Acetyl-12-epi-digoxin] | 2.78 ± 0.28 | 0.848 ± 0.09 | 3.40±0.40 | – | –
10 | CO[C@H]1[C@@H](O)C[C@H](O[C@H]2[C@@H](O)C[C@H](O[C@H]3[C@@H](O)C[C@H](O[C@H]4CC[C@@]5(C)[C@H](CC[C@@H]6[C@@H]5C[C@@H](O)[C@]5(C)[C@@H](C7=CC(=O)OC7)CC[C@]65O)C4)O[C@@H]3C)O[C@@H]2C)O[C@@H]1C [methyldigoxina., β-methyldigoxin, reference compound] | 0.66 ± 0.04 | 0.23 ± 0.03 | 3.06±0.36 | 75 ± 5 | 292 ± 56
11 | CC(=O)O[C@H]1C[C@H]2[C@@H](CC[C@@H]3C[C@@H](O[C@H]4C[C@H](O)[C@H](O[C@H]5C[C@H](O)[C@H](O[C@H]6C[C@H](O)[C@H](O)[C@@H](C)O6)[C@@H](C)O5)[C@@H](C)O4)CC[C@@]32C)[C@@]2(O)CC[C@H](C3=CC(=O)OC3)[C@@]12C [Example 7, 12-Acetyl-12-epi-digoxin] | 13.8 ± 0.81 | 2.86 ± 0.31 | 5.15±0.71 | – | –
12 | CCC1=C([C@H]2CC[C@]3(O)[C@@H]4CC[C@@H]5C[C@@H](O[C@H]6C[C@H](O)[C@H](O[C@H]7C[C@H](O)[C@H](O[C@H]8C[C@H](O)[C@H](OC)[C@@H](C)O8)[C@@H](C)O7)[C@@H](C)O6)CC[C@]5(C)[C@H]4C[C@H](O)[C@]23C)COC1=O [Example 13, 22-Ethyl-12-epi-β-methyldigoxin] | 40.5 ± 2.6 | 5.9 ± 0.48 | 7.10±0.74 | – | –
